The results in this text go back to publication PMC3236199, “Development of Derivatives of 3, 3′-Diindolylmethane as Potent Leishmania donovani Bi-Subunit Topoisomerase IB Poisons” (PLoS ONE, 2011).

One experiment concerns LdTOP1LS. Nature of the experiment: Plasmid cleavage assay. It is filed as biochemical, Leishmania donovani. To be noted: 50 µM, pHOT1 DNA. How it is done:
Cleavage assay was carried out as described previously. Briefly, 50 fmol of pHOT1 supercoiled DNA (containing topoisomerase I cleavage site) and 100 fmol of reconstituted LdTOP1LS were incubated in standard reaction mixture (50 µl) containing 50 mM Tris/HCl (pH 7.5), 100 mM KCl, 10 mM MgCl2, 0.5 mM DTT, 0.5 mM EDTA and 30 µg/ml BSA in the presence of various concentrations of drugs at 37°C for 30 min. The reactions were terminated by adding 1% SDS and 150 µg/ml proteinase K and further incubated for 1 h at 37°C. DNA samples were electrophoresed in a 1% agarose gel containing 0.5 µg/ml EtBr.
The effect of DIM and its derivatives on L. donovani topoisomerase I was examined by plasmid DNA cleavage assay as described. The topoisomerase reaction has three general mechanistic steps: (i) binding of enzyme to the substrate DNA, (ii) single strand breakage and subsequent strand rotation through the break leading to change in linking number, and (iii) strand religation. The second step of reaction is the introduction of a single-stranded nick in the phosphodiester bond of the DNA, through which an intact strand is allowed to pass. […]

Experiment [1] deals with L. donovani topoisomerase I. Nature of the experiment: Immunoband depletion assay, topoisomerase I. The conditions noted are these: preincubation with 20 µM DHBA before DIM, DPDIM, DMDIM or DMODIM. The format is cell-based, Leishmania donovani. As to the method:
Leishmania cells (3×10^7) were cultured in absence and presence of the drugs. Nuclear fractions were isolated as described. Briefly, cells were suspended in hypotonic buffer (10 mM Tris-HCl, pH 7.5, 1 mM EDTA, 0.1 mM EGTA, 1 mM PMSF, 1 mM benzamidine hydrochloride and 5 mM DTT) and homogenized. The homogenate was centrifuged for 10 min at 10,000 g. The pellets were washed and used as the source of nuclear fraction. Thereafter, the nuclear fractions were lysed with 1% SDS and subjected to SDS-PAGE (10%). The proteins were electrophoretically transferred to nitrocellulose membranes and immumobloting of immobilized proteins were carried out using a rabbit polyclonal antibody raised against LdTOP1S for topoisomerase I and ATPase domain of L. donovani topoisomerase II [8].
We have reported earlier that DIM induces topoisomerase I and not topoisomerase II-mediated cleavable complex formation in L. donovani. To investigate the ability of DIM derivatives to induce in vivo covalent complex formation between topoisomerase I and DNA in the Leishmania parasites we performed the immunoband depletion experiments with L. donovani promastigotes. Nuclear fractions were prepared from untreated as well as drug-treated promastigotes and subjected to SDS-PAGE. If topoisomerase I can form a covalent complex with genomic DNA inside the cells, then topoisomerase I-DNA cleavable complex cannot enter into the gel. […] The presence of topoisomerase I was detected by immunoblotting as described in ‘Materials and Methods’. It was observed that the immunoband of topoisomerase I disappeared in presence of 20 µM of DIM, DPDIM, DMDIM and DMODIM for 6 h incubation respectively (lanes 2–5). […] It should be mentioned here that topoisomerase I of Leishmania is a heterodimer and the catalytic site (SKXXY) is present in the small subunit of enzyme (LdTOP1S), which is involved in the formation of topoisomerase I-DNA covalent complex. So we have used the antibody raised against the small subunit of L. donovani topoisomerase I to study the immunoband depletion assay.
Figure 6 DIM-derivatives induce in vivo formation of topoisomerase-DNA cleavable complex within the cells. Stabilization of topoisomerase-I mediated cleavable complex was determined by immunoband depletion assay. Top panel: Immunoband depletion of L. donovani topoisomerase I, using an antibody raised against […]. Leishmanial cells were treated with 0.2% DMSO alone (lane 1), 20 µM each of DIM (lane 2), DPDIM (lane 3), DMDIM (lane 4) and DMODIM (lane 5) respectively. Lanes 6–9, preincubation with 20 µM DHBA before treatment with DIM, DPDIM, DMDIM and DMODIM respectively. Bottom panel: β-tubulin loading control.

As to `CC[C@@]1(O)C(=O)OCc2c1cc1n(c2=O)Cc2cc3ccccc3nc2-1` [CPT, camptothecin, reference compound], the “conversion of closed circular DNA (form I) to nicked circular DNA (form II)” value in the experiment on LdTOP1LS is listed as “totally converted to nicked circular DNA”.

`CC(C)[C@@H]1CC[C@]2(C(=O)O)CC[C@]3(C)C(CCC4[C@@]5(C)CC[C@H](O)C(C)(C)C5CC[C@]43C)C12` (some centres unmarked) [DHBA, reference compound]: the “immunoband of topoisomerase I after preincubation before treatment with drugs” value in experiment [1] is listed as “reappearance of immunoband”.
